# According to article PMC4657098, “A Review of the Updated Pharmacophore for the Alpha 5 GABA(A) Benzodiazepine Receptor Model” (International Journal of Medicinal Chemistry, 2015):
# Like-named read-outs stand apart in the source and are kept apart here.
# How the values were obtained:
# [1] = target: T1, α5β3γ2 GABAA/BzR (Homo sapiens, UniProt P18507+P31644); assay: Competition binding to HEK cell membranes, α5β3γ2; design: expressed in transfected cells
# [2] = target: T2, α6β3γ2 GABAA/BzR (Homo sapiens, UniProt P18507+Q16445); assay: Competition binding to HEK cell membranes, α6β3γ2; design: expressed in transfected cells
# [3] = target: T3, α4β3γ2 GABAA/BzR (Homo sapiens, UniProt P18507+P48169); assay: biochemical; format: binding
# T3 construct: expressed in transfected cells; host or cells: LTK cells (given for XLi-093 only)
# [4] = target: T4, α3β3γ2 GABAA/BzR (Homo sapiens, UniProt P18507+P34903); assay: Competition binding to HEK cell membranes, α3β3γ2; design: expressed in transfected cells
# [5] = target: T5, α1β3γ2 GABAA/BzR (Homo sapiens, UniProt P14867+P18507); assay: Competition binding to HEK cell membranes, α1β3γ2; design: expressed in transfected cells
# [6] = target: T6, α2β3γ2 GABAA/BzR (Homo sapiens, UniProt P18507+P47869); assay: Competition binding to HEK cell membranes, α2β3γ2; design: expressed in transfected cells
# [7] = test system: Bz BS of GABA(A) receptors; settings: cited from earlier work
# [8] = target: T2, α6β3γ2 GABAA/BzR; design: expressed in transfected cells; host or cells: LTK cells (given for XLi-093 only); settings: cited from earlier work
# [9] = target: T1, α5β3γ2 GABAA/BzR; design: expressed in transfected cells; host or cells: LTK cells (given for XLi-093 only); settings: cited from earlier work
# [10] = target: T5, α1β3γ2 GABAA/BzR; design: expressed in transfected cells; host or cells: LTK cells (given for XLi-093 only); settings: cited from earlier work
# [11] = target: T6, α2β3γ2 GABAA/BzR; design: expressed in transfected cells; host or cells: LTK cells (given for XLi-093 only); settings: cited from earlier work
# [12] = target: T4, α3β3γ2 GABAA/BzR; design: expressed in transfected cells; host or cells: LTK cells (given for XLi-093 only); settings: cited from earlier work
molecule,measurement,setting,value
C#Cc1ccc2c(c1)C(c1ccccc1F)=NC(C)C(=O)N2C (stereo not drawn) [OMB-19],Ki,[1]; read-out: Ki α5,3.5 nM
same,Ki,[2]; read-out: Ki α6,40 nM
same,Ki,[3]; read-out: Ki α4,3330 nM
same,Ki,[4]; read-out: Ki α3,20 nM
same,Ki,[5]; read-out: Ki α1,22 nM
same,Ki,[6]; read-out: Ki α2,4.6 nM
CN1Cc2c(C(=O)OC(C)(C)C)ncn2-c2ccc(C#C[Si](C)(C)C)cc2C1=O [RY-023 C22H27N3O3Si],Ki,[1]; read-out: Ki α5,2.61 nM
same,Ki,[2]; read-out: Ki α6,58.6 nM
same,Ki,[3]; read-out: Ki α4,7.8 nM
same,Ki,[4]; read-out: Ki α3,255 nM
same,Ki,[5]; read-out: Ki α1,197 nM
same,Ki,[6]; read-out: Ki α2,143 nM
C#Cc1ccc2c(c1)C(=O)N(C)Cc1c(C(=O)OCC)ncn1-2 [RY-080 C17H15N3O3],Ki,[1]; Ki α5,0.49 nM
same,Ki,[2]; Ki α6,28.8 nM
same,Ki,[3],5.3 nM
same,Ki,[4]; Ki α3,25.8 nM
same,Ki,[5]; Ki α1,28.4 nM
same,Ki,[6]; Ki α2,21.4 nM
CCOC(=O)c1ncn2c1CN(C)C(=O)c1cc(F)ccc1-2 [Ro15-1788],modulation,[7],antagonist
C[Si](C)(C)C#Cc1ccc2[nH]c3cnc(C(=O)OCC(F)(F)F)cc3c2c1 [WY-B-25],Ki,[1]; Ki α5,263 nM
same,Ki,[2]; Ki α6,2000 nM
same,Ki,[3],2000 nM
same,Ki,[4]; Ki α3,66 nM
same,Ki,[5]; Ki α1,7.6 nM
same,Ki,"[8]; Figure 33, αxβ3γ2, read-out: Affinity Ki α6",> 3000 nM
same,Ki,[6]; Ki α2,40 nM
C#Cc1ccc2[nH]c3cnc(C(=O)OCC(F)(F)F)cc3c2c1 [WY-B-26-2],Ki,[1]; Ki α5,124 nM
same,Ki,[2]; Ki α6,2000 nM
same,Ki,[9]; read-out: Affinity Ki α5,124 nM
same,Ki,[3],2000 nM
same,Ki,[4]; Ki α3,42.7 nM
same,Ki,[10]; read-out: Affinity Ki α1,4.5 nM
same,Ki,[5]; Ki α1,4.45 nM
same,Ki,[11]; read-out: Affinity Ki α2,44.6 nM
same,Ki,[12]; read-out: Affinity Ki α3,42.7 nM
same,Ki,[6]; Ki α2,44.6 nM
CC(C)(C)OC(=O)c1cc2c(cn1)[nH]c1ccc(-c3ccco3)cc12 [WYS13],Ki,[1]; read-out: Ki α5,163 nM
same,Ki,[2]; read-out: Ki α6,5000 nM
same,Ki,[9]; read-out: Affinity Ki α5,163 nM
same,Ki,[4]; read-out: Ki α3,27.5 nM
same,Ki,[10]; read-out: Affinity Ki α1,2.4 nM
same,Ki,[5]; read-out: Ki α1,2.44 nM
same,Ki,[11]; read-out: Affinity Ki α2,13 nM
same,Ki,[8]; read-out: Affinity Ki α6,5000 nM
same,Ki,[12]; read-out: Affinity Ki α3,27.5 nM
same,Ki,[6]; read-out: Ki α2,13 nM
CC(C)(C)OC(=O)c1cc2c(cn1)[nH]c1ccc(-c3ccccc3)cc12 [WYS15],Ki,[1]; Ki α5,76.5 nM
same,Ki,[1]; read-out: Ki α5,76.5 nM
same,Ki,[2]; Ki α6,5000 nM
same,Ki,[9]; read-out: Affinity Ki α5,76.5 nM
same,Ki,[4]; Ki α3,44.3 nM
same,Ki,[4]; read-out: Ki α3,44.3 nM
same,Ki,[10]; read-out: Affinity Ki α1,3.63 nM
same,Ki,[5]; Ki α1,3.63 nM
same,Ki,[5]; read-out: Ki α1,3.63 nM
same,Ki,[11]; read-out: Affinity Ki α2,2.02 nM
same,Ki,[12]; read-out: Affinity Ki α3,44.3 nM
same,Ki,[6]; Ki α2,2.02 nM
same,Ki,[6]; read-out: Ki α2,2.02 nM
CN1Cc2c(CCl)ncn2-c2ccc(Cl)cc2C1=O [compound 5],Ki,"[9]; Figure 4, read-out: Ki α5",28.5 nM
same,Ki,"[10]; Figure 4, read-out: Ki α1",> 300 nM
same,Ki,"[11]; Figure 4, read-out: Ki α2",> 300 nM
same,Ki,"[8]; Figure 4, read-out: Ki α6",> 300 nM
same,Ki,"[12]; Figure 4, read-out: Ki α3",> 300 nM
CCOCc1ncn2c1CN(C)C(=O)c1cc(Cl)ccc1-2 [compound 6],Ki,"[9]; Figure 4, read-out: Ki α5",82.7 nM
same,Ki,"[10]; Figure 4, read-out: Ki α1",> 300 nM
same,Ki,"[11]; Figure 4, read-out: Ki α2",> 300 nM
same,Ki,"[8]; Figure 4, read-out: Ki α6",> 300 nM
same,Ki,"[12]; Figure 4, read-out: Ki α3",> 300 nM
C#Cc1ccc2c(c1)C(=O)N1CCC[C@H]1c1c(-c3nc(C)no3)ncn1-2 [compound 7],Ki,"[9]; Figure 4, read-out: Ki α5",3.7 nM
same,Ki,"[10]; Figure 4, read-out: Ki α1",> 89 nM
"C#Cc1ccc2c(c1)C(c1ccccc1)=NCc1c(C(=O)OCCCOC(=O)c3ncn4c3CN=C(c3ccccc3)c3cc(C#C)ccc3-4)ncn1-2 [compound 63, 1,3-Bis(8-acetylenyl-6-phenyl-4H-benzo[f]imidazo[1,5-a][1,4]diazepine-3-carboxy) propyl diester]",Ki,[1]; Ki α5,194 nM
same,Ki,[2]; Ki α6,5000 nM
same,Ki,[3],5000 nM
same,Ki,[4]; Ki α3,272 nM
same,Ki,[5]; Ki α1,236 nM
same,Ki,[6]; Ki α2,7.4 nM
CN1C(=O)CN=C(c2ccccc2)c2cc(Cl)ccc21 [diazepam],modulation,[7],agonist
Cc1ncc2n1-c1ccc(Cl)cc1C(c1ccccc1F)=NC2 [midazolam],modulation,[7]; Supplement Table 1,agonist
Cc1nnc2n1-c1ccc(Cl)cc1C(c1ccccc1Cl)=NC2 [triazolam],modulation,[7]; Supplement Table 1,agonist
Cc1ccc(-c2nc3ccc(C)cn3c2CC(=O)N(C)C)cc1 [zolpidem],modulation,[7]; Supplement Table 1,agonist
Ro15-4513 [reference compound],Ki,[1]; read-out: Ki α5,0.26 nM
same,modulation,[7],inverse agonist
same,Ki,[6]; read-out: Ki α2,2.6 nM
